# Laboratory results as given in patent publication US6391305B1, “Conjugates useful in the treatment of prostate cancer” (priority 1999, dated 2002).
# Marks after values point to notes of the source that are not given here. Non-standard residues stand in square brackets, D forms with d. Residues, ends and D or L forms follow the SMILES beside them. *: point of attachment. Doxorubicin(3'-N) = COc1cccc2c1C(=O)c1c(O)c3c(c(O)c1C2=O)C[C@@](O)(C(=O)CO)C[C@@H]3O[C@H]1C[C@H](N*)[C@H](O)[C@H](C)O1; X2 = COCCOCCOCCOCCOCCOCCOCCOCCOCCOCCOCCOCCOCCOCCOCCOCCOCC(=O)*; Glyceroyl(2S) = O=C([C@@H](O)CO)*; Glyceroyl(2R) = O=C([C@H](O)CO)*; X4 = COCCOCCOCCOCCOCCOCCOCC(=O)*; hArg = N=C(N)NCCCC[C@H](N)C(=O)O; X1 = O=C([C@H](O)[C@@H](O)CO)*; Chg = N[C@H](C(=O)O)C1CCCCC1; hSer = N[C@@H](CCO)C(=O)O; Nle = CCCC[C@H](N)C(=O)O; Glycolyl = O=C(CO)*; X3 = O=C(C(O)CO)*
# Columns and labels:
# DuPRO cells = test: In vitro cytotoxicity, Alamar Blue assay, DuPRO; assay type: cell-based; conditions: value in parentheses beside the LNCaP value, read-out: DuPRO cell kill EC 50
# Method: (§1) The cytotoxicities of the cleaveable oligopeptide-doxorubicin conjugates, prepared as described in Examples 3-6, against a line of cells which is known to be killed by unmodified doxorubicin was assessed with an Alamar Blue assay. Specifically, cell cultures of LNCap prostate tumor cells or DuPRO cells in 96 well plates was diluted with medium containing various concentrations of a given conjugate (final plate well volume of 200 μl ). The cells were incubated for 3 days at 37° C., 20 μl of Alamar Blue is added to the assay well. The cells were further incubated and the assay plates were read on a EL-310 ELISA reader at the dual wavelengths of 570 and 600 nm at 4 and 7 hours after addition of Alamar Blue. Relative percentage viability at the various concentration of conjugate tested was then calculated versus control (no conjugate) cultures. If no salt is indicated, the free conjugate was tested.
# [1] = test system: LNCap prostate tumor cells; test: In vitro cytotoxicity, Alamar Blue assay, LNCaP; assay type: cell-based; conditions: 72 HRS, read-out: LNCaP Cell Kill in 72 HRS, {48 HRS} EC 50
# Method: as §1
# [2] = biological target: T1, enzymatically active free PSA (Homo sapiens, UniProt P07288); test: Recognition (cleavage) of oligopeptide-doxorubicin conjugates by free PSA, HPLC; assay type: biochemical; conditions: DOX conjugate; for Time to 50% Substrate Cleavage by York PSA: PSA digestion buffer pH7.4, 140 mM NaCl, molar ratio to PSA 100 to 1
# T1 construct: required for 50% cleavage of the noted oligopeptides with enzymatically active free PSA
# T1 sequence (P07288 25-261): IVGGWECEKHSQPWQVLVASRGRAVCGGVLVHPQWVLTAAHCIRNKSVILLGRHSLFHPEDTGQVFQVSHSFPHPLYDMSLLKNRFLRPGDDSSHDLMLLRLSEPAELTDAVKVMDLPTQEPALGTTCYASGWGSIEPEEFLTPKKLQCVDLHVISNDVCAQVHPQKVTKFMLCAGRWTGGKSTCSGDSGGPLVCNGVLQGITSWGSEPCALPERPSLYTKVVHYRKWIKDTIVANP
# Method: If no salt is indicated for the conjugate, the free conjugate was tested.
Structure (SMILES),EC50 (DuPRO cells),EC50 [1],"Time to 50% Substrate Cleavage by York PSA (Min), value marked * ([2]; alternative PSA digestion buffer pH8.0, 25 mM NaCl, 0.5 mM CaCl2)",Time to 50% Substrate Cleavage by York PSA [2],Substrate cleavage by York PSA at 3 HOUR ([2]; 3 hours)
"COc1cccc2c1C(=O)c1c(O)c3c(c(O)c1C2=O)C[C@@](O)(C(=O)CO)C[C@@H]3O[C@H]1C[C@H](NC(=O)[C@H](CC(C)C)NC(=O)[C@H](CO)NC(=O)[C@H](CCC(N)=O)NC(=O)[C@@H](NC(=O)[C@H](CO)NC(=O)[C@H](CO)NC(=O)[C@H](CCCCNC(=N)N)NC(=O)CO)C2CCCCC2)[C@H](O)[C@H](C)O1 [2-hydroxyacetyl-HomoRSSChgQ-SL-DOX (3′), 2-hydroxyacetyl-hArgSerSerChgGln-SerLeu-DOX (3′)] (Glycolyl-[hArg]SS[Chg]QSL-{Doxorubicin(3'-N)})",> 100 µM,5.5 µM,,,
"CCCC[C@H](NC(=O)[C@H](CO)NC(=O)[C@H](CCC(N)=O)NC(=O)[C@H](Cc1ccc(O)cc1)NC(=O)[C@H](CO)NC(=O)[C@H](CO)NC(=O)[C@H](CCCCNC(=N)N)NC(=O)CO)C(=O)N[C@H]1C[C@H](O[C@H]2C[C@](O)(C(=O)CO)Cc3c(O)c4c(c(O)c32)C(=O)c2c(OC)cccc2C4=O)O[C@@H](C)[C@H]1O [2-hydroxyacetyl-HomoRSSYQ-SNle-DOX (3′), 2-hydroxyacetyl-hArgSerSerTyrGln-SerNle-DOX (3′)] (Glycolyl-[hArg]SSYQS[Nle]-{Doxorubicin(3'-N)})",> 100 µM,3.6 µM,60* Min,,
"COc1cccc2c1C(=O)c1c(O)c3c(c(O)c1C2=O)C[C@@](O)(C(=O)CO)C[C@@H]3O[C@H]1C[C@H](NC(=O)[C@H](CC(C)C)NC(=O)[C@H](CO)NC(=O)[C@H](CCC(N)=O)NC(=O)[C@@H](NC(=O)[C@H](CCCCNC(=N)N)NC(=O)[C@H](CO)NC(=O)CO)C2CCCCC2)[C@H](O)[C@H](C)O1 [2-hydroxyacetyl-SHomoRChgQ-SL-DOX (3′), 2-hydroxyacetyl-SerhArgChgGln-SerLeu-DOX (3′)] (Glycolyl-S[hArg][Chg]QSL-{Doxorubicin(3'-N)})",> 100 µM,5.1 µM,,,
COc1cccc2c1C(=O)c1c(O)c3c(c(O)c1C2=O)C[C@@](O)(C(=O)CO)C[C@@H]3O[C@H]1C[C@H](NC(=O)[C@H](CC(C)C)NC(=O)[C@H](CO)NC(=O)[C@H](CCC(N)=O)NC(=O)[C@@H](NC(=O)[C@H](CO)NC(=O)[C@H](CO)NC(=O)CO)C2CCCCC2)[C@H](O)[C@H](C)O1 [2-hydroxyacetyl-SSChgQ-SL-DOX (3′)] (Glycolyl-SS[Chg]QSL-{Doxorubicin(3'-N)}),> 100 µM,4.8 µM,,45 min,
"COc1cccc2c1C(=O)c1c(O)c3c(c(O)c1C2=O)C[C@@](O)(C(=O)CO)C[C@@H]3O[C@H]1C[C@H](NC(=O)[C@H](CC(C)C)NC(=O)[C@H](CO)NC(=O)[C@H](CCC(N)=O)NC(=O)[C@@H](NC(=O)[C@H](CO)NC(=O)[C@H](CO)NC(=O)[C@H](CO)NC(=O)CO)C2CCCCC2)[C@H](O)[C@H](C)O1 [2-hydroxyacetyl-SSSChgQ-SL-DOX (3′), N-(2-Hydroxyacetyl)-Ser-Ser-Ser-Chg-Gln-Ser-Leu-Dox] (Glycolyl-SSS[Chg]QSL-{Doxorubicin(3'-N)})",> 100 µM,7.2 µM,,25 min,
"COc1cccc2c1C(=O)c1c(O)c3c(c(O)c1C2=O)C[C@@](O)(C(=O)CO)C[C@@H]3O[C@H]1C[C@H](NC(=O)[C@H](CC(C)C)NC(=O)[C@H](CO)NC(=O)[C@H](CCC(N)=O)NC(=O)[C@@H](NC(=O)[C@H](CO)NC(=O)[C@H](CO)NC(=O)[C@H](CCO)NC(=O)C(O)CO)C2CCCCC2)[C@H](O)[C@H](C)O1 (some centres unmarked) [(2,3-dihydroxypropionyl)-hSerSerSerChgGln-SerLeu-DOX (3′)] (X3-[hSer]SS[Chg]QSL-{Doxorubicin(3'-N)})",90 µM,5.1 µM,,35 min,
"COc1cccc2c1C(=O)c1c(O)c3c(c(O)c1C2=O)C[C@@](O)(C(=O)CO)C[C@@H]3O[C@H]1C[C@H](NC(=O)[C@H](CC(C)C)NC(=O)[C@H](CO)NC(=O)[C@H](CCC(N)=O)NC(=O)[C@@H](NC(=O)[C@H](CCCCNC(=N)N)NC(=O)[C@H](CO)NC(=O)[C@H](O)[C@@H](O)CO)C2CCCCC2)[C@H](O)[C@H](C)O1 [(2R,3S) 2,3,4-trihydroxybutanoyl-SerhArgChgGln-SerLeu-DOX (3′)] (X1-S[hArg][Chg]QSL-{Doxorubicin(3'-N)})",> 100 µM,14.1 µM,,45 min,
"COc1cccc2c1C(=O)c1c(O)c3c(c(O)c1C2=O)C[C@@](O)(C(=O)CO)C[C@@H]3O[C@H]1C[C@H](NC(=O)[C@H](CC(C)C)NC(=O)[C@H](CO)NC(=O)[C@H](CCC(N)=O)NC(=O)[C@@H](NC(=O)[C@H](CCCCNC(=N)N)NC(=O)[C@H](CO)NC(=O)[C@H](O)CO)C2CCCCC2)[C@H](O)[C@H](C)O1 [(d) 2,3-dihydroxypropionyl-SerhArgChgGln-SerLeu-DOX (3′)] ({Glyceroyl(2R)}-S[hArg][Chg]QSL-{Doxorubicin(3'-N)})",> 100 µM,5.8 µM,,65 min,
"COc1cccc2c1C(=O)c1c(O)c3c(c(O)c1C2=O)C[C@@](O)(C(=O)CO)C[C@@H]3O[C@H]1C[C@H](NC(=O)[C@H](CC(C)C)NC(=O)[C@H](CO)NC(=O)[C@H](CCC(N)=O)NC(=O)[C@@H](NC(=O)[C@H](CO)NC(=O)[C@H](CO)NC(=O)[C@H](CCCCNC(=N)N)NC(=O)[C@H](O)CO)C2CCCCC2)[C@H](O)[C@H](C)O1 [(d)(2,3-dihydroxypropionyl)-hArgSerSerChgGln-SerLeu-DOX(3′)] ({Glyceroyl(2R)}-[hArg]SS[Chg]QSL-{Doxorubicin(3'-N)})",> 100 µM,7.7 µM,,12 min,
"COc1cccc2c1C(=O)c1c(O)c3c(c(O)c1C2=O)C[C@@](O)(C(=O)CO)C[C@@H]3O[C@H]1C[C@H](NC(=O)[C@H](CC(C)C)NC(=O)[C@H](CO)NC(=O)[C@H](CCC(N)=O)NC(=O)[C@@H](NC(=O)[C@H](CO)NC(=O)[C@H](CO)NC(=O)[C@H](O)CO)C2CCCCC2)[C@H](O)[C@H](C)O1 [(d)(2,3-dihydroxypropionyl)SerSerChgGln-SerLeu-DOX (3′)] ({Glyceroyl(2R)}-SS[Chg]QSL-{Doxorubicin(3'-N)})",> 100 µM,9.1 µM,,120 min,
"COc1cccc2c1C(=O)c1c(O)c3c(c(O)c1C2=O)C[C@@](O)(C(=O)CO)C[C@@H]3O[C@H]1C[C@H](NC(=O)[C@H](CC(C)C)NC(=O)[C@H](CO)NC(=O)[C@H](CCC(N)=O)NC(=O)[C@@H](NC(=O)[C@H](CCCCNC(=N)N)NC(=O)[C@H](CO)NC(=O)[C@@H](O)CO)C2CCCCC2)[C@H](O)[C@H](C)O1 [(l) 2,3-dihydroxypropionyl-SerhArgChgGln-SerLeu-DOX (3′)] ({Glyceroyl(2S)}-S[hArg][Chg]QSL-{Doxorubicin(3'-N)})",> 100 µM,9.4 µM,,15 min,
"COc1cccc2c1C(=O)c1c(O)c3c(c(O)c1C2=O)C[C@@](O)(C(=O)CO)C[C@@H]3O[C@H]1C[C@H](NC(=O)[C@H](CC(C)C)NC(=O)[C@H](CO)NC(=O)[C@H](CCC(N)=O)NC(=O)[C@@H](NC(=O)[C@H](CO)NC(=O)[C@H](CO)NC(=O)[C@@H](O)CO)C2CCCCC2)[C@H](O)[C@H](C)O1 [(l)(2,3-dihydroxypropionyl)-SerSerChgGln-SerLeu-DOX (3′)] ({Glyceroyl(2S)}-SS[Chg]QSL-{Doxorubicin(3'-N)})",> 100 µM,13 µM,,25 min,
"COc1cccc2c1C(=O)c1c(O)c3c(c(O)c1C2=O)C[C@@](O)(C(=O)CO)C[C@@H]3O[C@H]1C[C@H](NC(=O)[C@@H](CC(C)C)NC(=O)[C@H](CO)NC(=O)[C@H](CCC(N)=O)NC(=O)[C@@H](NC(=O)[C@H](CO)NC(=O)[C@H](CO)NC(=O)[C@@H](O)CO)C2CCCCC2)[C@H](O)[C@H](C)O1 [(l)(2,3-dihydroxypropionyl)SerSerChgGln-Ser(dLeu)-DOX (3′)] ({Glyceroyl(2S)}-SS[Chg]QS[dL]-{Doxorubicin(3'-N)})",> 100 µM,> 100 µM,,,22%
"COCCOCCOCCOCCOCCOCCOCC(=O)N[C@@H](C)C(=O)N[C@@H](CO)C(=O)N[C@H](C(=O)N[C@@H](CCC(N)=O)C(=O)N[C@@H](CO)C(=O)N[C@@H](CC(C)C)C(=O)N[C@H]1C[C@H](O[C@H]2C[C@](O)(C(=O)CO)Cc3c(O)c4c(c(O)c32)C(=O)c2c(OC)cccc2C4=O)O[C@@H](C)[C@H]1O)C1CCCCC1 [PEG(6)-ASChgQ-SL-DOX (3′), PEG(6)-AlaSerChgGln-SerLeu-DOX (3′)] (X4-AS[Chg]QSL-{Doxorubicin(3'-N)})",,12 µM,,160 min,
"COCCOCCOCCOCCOCCOCCOCCOCCOCCOCCOCCOCCOCCOCCOCCOCCOCC(=O)N[C@@H](CO)C(=O)N[C@@H](CCCCNC(=N)N)C(=O)N[C@@H](Cc1ccc(O)cc1)C(=O)N[C@@H](CCC(N)=O)C(=O)N[C@@H](CO)C(=O)N[C@@H](CC(C)C)C(=O)N[C@H]1C[C@H](O[C@H]2C[C@](O)(C(=O)CO)Cc3c(O)c4c(c(O)c32)C(=O)c2c(OC)cccc2C4=O)O[C@@H](C)[C@H]1O [PEG(16)-SHomoRYQ-SL-DOX (3′), PEG(16)-SerhArgTyrGln-SerLeu-DOX (3′)] (X2-S[hArg]YQSL-{Doxorubicin(3'-N)})",,45 µM,,65 min,
